Measurements taken from publication PMC12005229, “Final results from the phase Ia/Ib study of the novel bromodomain and extra-terminal domain inhibitor, BI 894999, in patients with advanced solid tumors or diffuse large B-cell lymphoma” (ESMO Open, 2025).
Several values for one entry are separate records, joined by “and”; a condition that tells them apart may be missing. Equal values may be shown once. Entries after “also recorded” stand apart in the source; their conditions may differ.

System: patients with advanced solid tumors (SCLC, CRC, mCRPC, NUT carcinoma)
Assay: phase Ib expansion: DLTs, adverse events, exposure
Conditions: for DLT / DLT grade / DLT outcome / DLT duration: individual patient events; for patients with DLTs: phase Ib schedule B
[1] = phase Ib CRC, schedule B 2.5 mg
[2] = phase Ib NUT carcinoma, schedule B 2.5 mg
[3] = phase Ib NUT carcinoma, schedule C 6.0/3.0 mg
[4] = phase Ib SCLC, schedule B 2.5 mg
[5] = phase Ib mCRPC, schedule B 2.5 mg
[6] = phase Ib, NUT carcinoma total n = 42

Source text: The primary endpoint for the phase Ib expansion was the number of patients who experienced DLTs during the study treatment period.
For fatigue at baseline, there had to be an increase of two or more grades.

## CNc1nc(-c2nc3ccc(N4CCN(C)CC4)cc3n2Cc2ccccc2)cn2c(C)nnc12 [BI 894999]
Phase Ia DLBCL extension and phase Ib
  most frequent DLT: grade 4 thrombocytopenia
Phase Ib
  discontinuation because of DLT: 3.8%
  discontinuation because of other AEs: 10.1%
  discontinuation because of progressive disease: 78.5%
  dose continuations due to AEs: 13.9%
  dose reductions due to AEs: 16.5%
  median time to first dose reduction: 35.5 days
  patients who died because of AEs: 8.9%
  patients who required a dose reduction: 20.3%
  patients with AEs of any grade: 100%
  patients with treatment-related AEs: 83.5%
  thrombocytopenia leading to dose discontinuation: 2.5%
[1]
  DLT: Dermatitis acneiform; also recorded: Thrombocytopenia
  DLT grade: 3 and 4
  DLT outcome: Not recovered
[2]
  DLT: Decreased platelet count
  DLT duration: 6 days
  DLT grade: 4
  DLT outcome: Not recovered
[3]
  DLT: Pleural effusion; also recorded: Fatigue; also recorded: Diarrhea; also recorded: Decreased platelet count
  DLT duration: 3 days and 16 days and 36 days
  DLT grade: 3 and 4
  DLT outcome: Recovered; also recorded: Not recovered
[4]
  DLT: Laryngeal inflammation; also recorded: Thrombocytopenia; also recorded: Decreased appetite; also recorded: Fatigue; also recorded: Troponin T increased
  DLT duration: 4 days and 9 days and 11 days and 6 days
  DLT grade: 3 and 4
  DLT outcome: Not recovered; also recorded: Recovered
[5]
  DLT: Thrombocytopenia; also recorded: Decreased platelet count; also recorded: Troponin T increased; also recorded: Stomatitis; also recorded: Nausea; also recorded: Decreased appetite; also recorded: Hypophosphatemia
  DLT duration: 40 days and 4 days and 3 days and 8 days and 12 days and 22 days
  DLT grade: 4 and 3
  DLT outcome: Not recovered; also recorded: Recovered
CRC
  patients with DLTs: 2 n
NUT carcinoma
  patients with DLTs: 2 n
SCLC
  patients with DLTs: 3 n
mCRPC
  patients with DLTs: 7 n
Phase Ib, CRC n = 14
  ALT increase, treatment-related AE, any grade: 0 n (%)
  ALT increase, treatment-related AE, grade ≥3: 0 n (%)
  Anemia, treatment-related AE, any grade: 3 (21.4) n (%)
  Anemia, treatment-related AE, grade ≥3: 2 (14.3) n (%)
  Decreased appetite, treatment-related AE, any grade: 5 (35.7) n (%)
  Decreased appetite, treatment-related AE, grade ≥3: 0 n (%)
  Decreased platelet count, treatment-related AE, any grade: 1 (7.1) n (%)
  Decreased platelet count, treatment-related AE, grade ≥3: 1 (7.1) n (%)
  Diarrhea, treatment-related AE, any grade: 6 (42.9) n (%)
  Diarrhea, treatment-related AE, grade ≥3: 2 (14.3) n (%)
  Dysgeusia, treatment-related AE, any grade: 3 (21.4) n (%)
  Dysgeusia, treatment-related AE, grade ≥3: 0 n (%)
  Epistaxis, treatment-related AE, any grade: 1 (7.1) n (%)
  Epistaxis, treatment-related AE, grade ≥3: 0 n (%)
  Fatigue, treatment-related AE, any grade: 4 (28.6) n (%)
  Fatigue, treatment-related AE, grade ≥3: 0 n (%)
  Nausea, treatment-related AE, any grade: 3 (21.4) n (%)
  Nausea, treatment-related AE, grade ≥3: 0 n (%)
  Number of patients with treatment-related AEs: 12 (85.7) n (%)
  Thrombocytopenia, treatment-related AE, any grade: 5 (35.7) n (%)
  Thrombocytopenia, treatment-related AE, grade ≥3: 3 (21.4) n (%)
  Vomiting, treatment-related AE, any grade: 3 (21.4) n (%)
  Vomiting, treatment-related AE, grade ≥3: 2 (14.3) n (%)
  Weight decrease, treatment-related AE, any grade: 1 (7.1) n (%)
  Weight decrease, treatment-related AE, grade ≥3: 0 n (%)
[6]
  ALT increase, treatment-related AE, any grade: 5 (11.9) n (%)
  ALT increase, treatment-related AE, grade ≥3: 0 n (%)
  Anemia, treatment-related AE, any grade: 11 (26.2) n (%)
  Anemia, treatment-related AE, grade ≥3: 6 (14.3) n (%)
  Decreased appetite, treatment-related AE, any grade: 1 (2.4) n (%)
  Decreased appetite, treatment-related AE, grade ≥3: 0 n (%)
  Decreased platelet count, treatment-related AE, any grade: 15 (35.7) n (%)
  Decreased platelet count, treatment-related AE, grade ≥3: 7 (16.7) n (%)
  Diarrhea, treatment-related AE, any grade: 8 (19.0) n (%)
  Diarrhea, treatment-related AE, grade ≥3: 1 (2.4) n (%)
  Dysgeusia, treatment-related AE, any grade: 5 (11.9) n (%)
  Dysgeusia, treatment-related AE, grade ≥3: 0 n (%)
  Epistaxis, treatment-related AE, any grade: 1 (2.4) n (%)
  Epistaxis, treatment-related AE, grade ≥3: 0 n (%)
  Fatigue, treatment-related AE, any grade: 10 (23.8) n (%)
  Fatigue, treatment-related AE, grade ≥3: 4 (9.5) n (%)
  Nausea, treatment-related AE, any grade: 2 (4.8) n (%)
  Nausea, treatment-related AE, grade ≥3: 0 n (%)
  Number of patients with treatment-related AEs: 32 (76.2) n (%)
  Thrombocytopenia, treatment-related AE, any grade: 10 (23.8) n (%)
  Thrombocytopenia, treatment-related AE, grade ≥3: 6 (14.3) n (%)
  Vomiting, treatment-related AE, any grade: 0 n (%)
  Vomiting, treatment-related AE, grade ≥3: 0 n (%)
  Weight decrease, treatment-related AE, any grade: 0 n (%)
  Weight decrease, treatment-related AE, grade ≥3: 0 n (%)
Phase Ib, SCLC n = 12
  ALT increase, treatment-related AE, any grade: 1 (8.3) n (%)
  ALT increase, treatment-related AE, grade ≥3: 0 n (%)
  Anemia, treatment-related AE, any grade: 0 n (%)
  Anemia, treatment-related AE, grade ≥3: 0 n (%)
  Decreased appetite, treatment-related AE, any grade: 2 (16.7) n (%)
  Decreased appetite, treatment-related AE, grade ≥3: 1 (8.3) n (%)
  Decreased platelet count, treatment-related AE, any grade: 1 (8.3) n (%)
  Decreased platelet count, treatment-related AE, grade ≥3: 0 n (%)
  Diarrhea, treatment-related AE, any grade: 3 (25.0) n (%)
  Diarrhea, treatment-related AE, grade ≥3: 0 n (%)
  Dysgeusia, treatment-related AE, any grade: 3 (25.0) n (%)
  Dysgeusia, treatment-related AE, grade ≥3: 0 n (%)
  Epistaxis, treatment-related AE, any grade: 0 n (%)
  Epistaxis, treatment-related AE, grade ≥3: 0 n (%)
  Fatigue, treatment-related AE, any grade: 4 (33.3) n (%)
  Fatigue, treatment-related AE, grade ≥3: 1 (8.3) n (%)
  Nausea, treatment-related AE, any grade: 1 (8.3) n (%)
  Nausea, treatment-related AE, grade ≥3: 0 n (%)
  Number of patients with treatment-related AEs: 11 (91.7) n (%)
  Thrombocytopenia, treatment-related AE, any grade: 5 (41.7) n (%)
  Thrombocytopenia, treatment-related AE, grade ≥3: 3 (25.0) n (%)
  Vomiting, treatment-related AE, any grade: 2 (16.7) n (%)
  Vomiting, treatment-related AE, grade ≥3: 0 n (%)
  Weight decrease, treatment-related AE, any grade: 1 (8.3) n (%)
  Weight decrease, treatment-related AE, grade ≥3: 0 n (%)
Phase Ib, all 79 patients
  anemia, grade ≥3 treatment-related AE: 15.2%
  anemia, treatment-related AE: 22.8%
  decreased appetite, treatment-related AE: 15.2%
  decreased platelet count, grade ≥3 treatment-related AE: 11.4%
  decreased platelet count, treatment-related AE: 25.3%
  diarrhea, treatment-related AE: 29.1%
  dysgeusia, treatment-related AE: 19.0%
  fatigue, grade ≥3 treatment-related AE: 6.3%
  fatigue, treatment-related AE: 27.8%
  nausea, treatment-related AE: 12.7%
  thrombocytopenia, grade ≥3 treatment-related AE: 20.3%
  thrombocytopenia, treatment-related AE: 31.6%
  vomiting, treatment-related AE: 12.7%
Phase Ib, mCRPC n = 11
  ALT increase, treatment-related AE, any grade: 0 n (%)
  ALT increase, treatment-related AE, grade ≥3: 0 n (%)
  Anemia, treatment-related AE, any grade: 4 (36.4) n (%)
  Anemia, treatment-related AE, grade ≥3: 4 (36.4) n (%)
  Decreased appetite, treatment-related AE, any grade: 4 (36.4) n (%)
  Decreased appetite, treatment-related AE, grade ≥3: 1 (9.1) n (%)
  Decreased platelet count, treatment-related AE, any grade: 3 (27.3) n (%)
  Decreased platelet count, treatment-related AE, grade ≥3: 1 (9.1) n (%)
  Diarrhea, treatment-related AE, any grade: 6 (54.5) n (%)
  Diarrhea, treatment-related AE, grade ≥3: 0 n (%)
  Dysgeusia, treatment-related AE, any grade: 4 (36.4) n (%)
  Dysgeusia, treatment-related AE, grade ≥3: 0 n (%)
  Epistaxis, treatment-related AE, any grade: 2 (18.2) n (%)
  Epistaxis, treatment-related AE, grade ≥3: 0 n (%)
  Fatigue, treatment-related AE, any grade: 4 (36.4) n (%)
  Fatigue, treatment-related AE, grade ≥3: 0 n (%)
  Nausea, treatment-related AE, any grade: 4 (36.4) n (%)
  Nausea, treatment-related AE, grade ≥3: 1 (9.1) n (%)
  Number of patients with treatment-related AEs: 11 (100.0) n (%)
  Thrombocytopenia, treatment-related AE, any grade: 5 (45.5) n (%)
  Thrombocytopenia, treatment-related AE, grade ≥3: 4 (36.4) n (%)
  Vomiting, treatment-related AE, any grade: 5 (45.5) n (%)
  Vomiting, treatment-related AE, grade ≥3: 0 n (%)
  Weight decrease, treatment-related AE, any grade: 2 (18.2) n (%)
  Weight decrease, treatment-related AE, grade ≥3: 0 n (%)
Phase Ib, on treatment
  DLT grade 3 decreased appetite: 2.5%
  DLT grade 3 fatigue: 3.8%
  DLT grade 3 increased troponin T: 2.5%
  DLT grade 4 decreased platelet count: 5.1%
  DLT grade 4 thrombocytopenia: 10.1%
Phase Ib, schedule C 6.0/3.0 mg, on-treatment period
  total patients with DLTs: Phase Ib expansion: total patients with DLTs on BI 894999 (schedule C; 6.0/3.0 mg), n = 3
Phase Ib, COVID-19, pneumonia, sepsis, delirium, seizure, dyspnea, pulmonary hemorrhage, acute kidney injury
  AEs leading to death, each: 1.3%
Phase Ib, tumor hemorrhage, seizure, dyspnea, laryngeal inflammation, nausea, stomatitis, bladder dilation, urinary retention, increased ALT, increased AST, decreased platelet count, increased alkaline phosphatase
  other AEs leading to dose discontinuation, each: 1.3%
Solid tumors phase Ib n = 79
  AEs leading to death: 7 (8.9) n (%)
  AEs leading to discontinuation of trial drug: 11 (13.9) n (%)
  AEs leading to dose reduction: 13 (16.5) n (%)
  Any AE: 79 (100) n (%)
  DLT in on-treatment period: 17 (21.5) n (%)
  Treatment-related AEs: 66 (83.5) n (%)
  Treatment-related serious AEs: 17 (21.5) n (%)
